Measurements taken from EPA's ToxRefDB 2.

Legend:
rat [1] = conditions: Prenatal developmental toxicity study; sprague dawley; Oral; Gavage/Intubation; dose end: 15 GD; group: maternal; reproductive / reproductive performance / postimplantation loss / postimplantation loss + reproductive / reproductive performance / …
rat [2] = conditions: Subchronic oral toxicity in rodents, Feed, dose end: 13 week
rat [3] = conditions: Combined chronic toxicity/carcinogenicity, sprague dawley, Oral, Feed, dose end: 103 week
dog [4] = conditions: Chronic toxicity, beagle, Oral, Feed, dose end: 104 week
rat [5] = conditions: Subchronic oral toxicity in rodents, fischer, Feed, dose end: 13 week, group: systemic
rat [6] = conditions: Multigenerational reproductive toxicity study, other, Oral, Feed, dose end: 2 generation
dog [7] = conditions: Chronic toxicity, beagle, Oral, Capsule, dose end: 52 week, group: systemic
mouse [8] = conditions: Carcinogenicity; cd1; Oral; Feed; dose end: 78 week; group: systemic; systemic / in life observation / clinical signs / alopecia + systemic / in life observation / mortality / mortality + systemic / pathology …
rat [9] = conditions: Prenatal developmental toxicity study, sprague dawley, Oral, Gavage/Intubation, dose end: 17 GD
rat [10] = conditions: Combined chronic toxicity/carcinogenicity; sprague dawley; Oral; Feed; dose end: 104 week; group: systemic; systemic / hematology / blood clotting / blood clotting - thromboplastin time + systemic / hematology / platelet / platelet + systemic / …
rabbit [11] = conditions: Prenatal developmental toxicity study, new zealand white, Oral, Gavage/Intubation, dose end: 28 GD
mouse [12] = conditions: Subchronic oral toxicity in rodents, cd1, Feed, dose end: 90 day, group: systemic
rat [13] = conditions: Subchronic oral toxicity in rodents, sprague dawley, Feed, dose end: 13 week, group: systemic
rat [14] = conditions: Multigenerational reproductive toxicity study, other, Oral, Feed, dose end: 2 generation; remark: listed apart in the source
rat [15] = conditions: Subchronic inhalation toxicity, wistar, Whole-Body, dose end: 78 day, group: systemic, systemic / organ weight / kidney / nos + systemic / organ weight / liver / nos + systemic / organ weight / ovary / nos + systemic / …
mouse [16] = conditions: Carcinogenicity, cd1, Oral, Feed, dose end: 108 week, group: systemic
dog [17] = conditions: Chronic toxicity; beagle; Oral; Feed; dose end: 52 week; group: systemic; systemic / hematology / blood clotting / blood clotting - prothrombin time + systemic / hematology / erythrocyte (rbc) count differential / …
rabbit [18] = conditions: Prenatal developmental toxicity study, new zealand white, Oral, Gavage/Intubation, dose end: 20 GD
rat [19] = conditions: Prenatal developmental toxicity study, wistar, Oral, Gavage/Intubation, dose end: 16 GD
rat [20] = conditions: Subchronic oral toxicity in rodents, wistar, Feed, dose end: 90 day, group: systemic
[21] = group: cholinesterase, cholinesterase / cholinesterase / cholinesterase / whole blood cholinesterase (che) + cholinesterase / cholinesterase / cholinesterase / …
[22] = group: systemic, systemic / in life observation / food consumption / food consumption
[23] = group: cholinesterase, cholinesterase / cholinesterase / cholinesterase / brain cholinesterase (che)
[24] = group: cholinesterase, cholinesterase / cholinesterase / cholinesterase / brain cholinesterase (che) + cholinesterase / cholinesterase / cholinesterase / plasma …
[25] = group: systemic, systemic / pathology microscopic / eye / cataract
[26] = group: cholinesterase, cholinesterase / cholinesterase / cholinesterase / brain cholinesterase (che) + cholinesterase / cholinesterase / cholinesterase / whole …
[27] = group: systemic, systemic / in life observation / water consumption / water consumption
[28] = systemic / urinalysis / ph / ph
[29] = group: offspring, systemic / in life observation / body weight / offspring (pup) weight
[30] = group: reproductive, reproductive / offspring survival early / dead fetuses / dead fetuses
[31] = systemic / pathology microscopic / parathyroid gland / cyst + systemic / pathology microscopic / pituitary gland / cyst
[32] = group: developmental, systemic / in life observation / clinical signs / mobility + systemic / in life observation / clinical signs / rearing activity + …
[33] = group: maternal, systemic / in life observation / clinical signs / salivation
[34] = group: developmental, systemic / in life observation / body weight / fetal weight
[35] = group: maternal, reproductive / reproductive performance / aborted / aborted + reproductive / reproductive performance / postimplantation loss / …
[36] = systemic / hematology / erythrocyte (rbc) count differential / erythrocyte (rbc) + systemic / hematology / hematocrit (hct) / hematocrit (…
[37] = systemic / clinical chemistry / alanine aminotransferase (alt/sgpt) / alanine aminotransferase (alt/sgpt) + systemic / clinical chemistry / …
[38] = group: offspring, systemic / organ weight / liver / relative to body weight
[39] = group: offspring, systemic / organ weight / liver / relative to body weight + systemic / in life observation / body weight / offspring (pup) weight + systemic…
[40] = group: parental, systemic / organ weight / thyroid gland / absolute
[41] = systemic / in life observation / body weight / body weight gain + systemic / in life observation / mortality / mortality
[42] = systemic / in life observation / body weight / body weight gain + systemic / in life observation / mortality / mortality + systemic / …
[43] = group: developmental, developmental / developmental malformation / bone / delayed ossification + developmental / developmental malformation / bone / short …
[44] = group: maternal, systemic / in life observation / body weight / body weight loss + systemic / in life observation / clinical signs / inappetence + systemic…
[45] = group: developmental, developmental / developmental malformation / bone / delayed ossification + developmental / developmental malformation / bone / unossified + …
[46] = group: maternal, systemic / in life observation / body weight / body weight gain + systemic / in life observation / food consumption / food consumption
[47] = systemic / organ weight / heart / absolute + systemic / organ weight / heart / relative to body weight + systemic / clinical chemistry / …

SMILES: CNC(=O)Oc1cccc2c1OC(C)(C)O2 [Bendiocarb]
- LEL (rat [1]): 10 mg/kg/day
- LOAEL (rat [1]): 10 mg/kg/day
- NEL (rat [1]): 2 mg/kg/day
- NOAEL (rat [1]): 2 mg/kg/day
- NEL (rat [2]; group: cholinesterase, cholinesterase / cholinesterase / cholinesterase / plasma cholinesterase (che) + cholinesterase / cholinesterase / cholinesterase / whole …): 0.5 mg/kg/day
- LEL (rat [2]; group: cholinesterase, cholinesterase / cholinesterase / cholinesterase / whole blood cholinesterase (che)): 2.5 mg/kg/day
- LOAEL (rat [2]; [21]): > 12.5 mg/kg/day
- NOAEL (rat [2]; [21]): ≥ 12.5 mg/kg/day
- LEL (rat [2]; [22]): 12.5 mg/kg/day
- LOAEL (rat [2]; [22]): 12.5 mg/kg/day
- NEL (rat [2]; [22]): 2.5 mg/kg/day
- NOAEL (rat [2]; [22]): 2.5 mg/kg/day
- LEL (rat [3]; [23]): 0.86 mg/kg/day
- LOAEL (rat [3]; [23]): 0.86 mg/kg/day
- NEL (rat [3]; [24]): 0.42 mg/kg/day
- NOAEL (rat [3]; [24]): 0.42 mg/kg/day
- LEL (rat [3]; [25]): 0.72 mg/kg/day
- LOAEL (rat [3]; [25]): 0.72 mg/kg/day
- NEL (rat [3]; [25]): 0.35 mg/kg/day
- NOAEL (rat [3]; [25]): 0.35 mg/kg/day
- LEL (dog [4]; [26]): 15 mg/kg/day
- LOAEL (dog [4]; [26]): 15 mg/kg/day
- NEL (dog [4]; [26]): 3 mg/kg/day
- NOAEL (dog [4]; [26]): 3 mg/kg/day
- LEL (dog [4]; [27]): 3 mg/kg/day
- LOAEL (dog [4]; [27]): > 15 mg/kg/day
- NEL (dog [4]; [27]): 0.7 mg/kg/day
- NOAEL (dog [4]; [27]): ≥ 15 mg/kg/day

SMILES: Cc1ccc(-c2c(Cl)nc(C#N)n2S(=O)(=O)N(C)C)cc1 [Cyazofamid]
- LOAEL (rat [5]; systemic / pathology microscopic / kidney / basophilia + systemic / urinalysis / protein / protein): 294 mg/kg/day
- NOAEL (rat [5]; systemic / pathology microscopic / kidney / basophilia + systemic / urinalysis / protein / protein + systemic / urinalysis / ph / ph + …): 29.5 mg/kg/day
- LEL (rat [5]; [28]): 0.6 mg/kg/day
- NEL (rat [5]; [28]): < 0.6 mg/kg/day
- LEL (rat [6]; [29]): 1000 mg/kg/day
- LOAEL (rat [6]; [29]): > 1000 mg/kg/day
- NEL (rat [6]; [29]): 100 mg/kg/day
- NOAEL (rat [6]; [29]): ≥ 1000 mg/kg/day
- LEL (rat [6]; [30]): 1000 mg/kg/day
- LOAEL (rat [6]; [30]): > 1000 mg/kg/day
- NEL (rat [6]; [30]): 100 mg/kg/day
- NOAEL (rat [6]; [30]): ≥ 1000 mg/kg/day
- LOAEL (dog [7]; [31]): 1000 mg/kg/day
- NEL (dog [7]; [31]): 40 mg/kg/day
- NOAEL (dog [7]; [31]): 200 mg/kg/day
- LEL (dog [7]; systemic / pathology microscopic / pituitary gland / cyst): 200 mg/kg/day
- LEL (mouse [8]): 985 mg/kg/day
- LOAEL (mouse [8]): 985 mg/kg/day
- NEL (mouse [8]): 94.8 mg/kg/day
- NOAEL (mouse [8]): 94.8 mg/kg/day

SMILES: CCOc1ccc(C(C)(C)COCc2cccc(Oc3ccccc3)c2)cc1 [Etofenprox]
- LEL (rat [9]; group: developmental, systemic / in life observation / clinical signs / mobility + systemic / in life observation / clinical signs / rearing activity): 250 mg/kg/day
- LOAEL (rat [9]; [32]): 5000 mg/kg/day
- NEL (rat [9]; [32]): 12.5 mg/kg/day
- NOAEL (rat [9]; [32]): 250 mg/kg/day
- LOAEL (rat [9]; group: maternal, systemic / in life observation / clinical signs / anogenital staining + systemic / in life observation / clinical signs / scabbing): 5000 mg/kg/day
- LEL (rat [9]; [33]): 12.5 mg/kg/day
- NEL (rat [9]; [33]): < 12.5 mg/kg/day
- NOAEL (rat [9]; group: maternal, systemic / in life observation / clinical signs / salivation + systemic / in life observation / clinical signs / anogenital staining + …): 250 mg/kg/day
- LEL (rat [10]): 1.1 mg/kg/day
- LOAEL (rat [10]): 25.5 mg/kg/day
- NEL (rat [10]): < 1.1 mg/kg/day
- NOAEL (rat [10]): 3.7 mg/kg/day
- LEL (rabbit [11]; [34]): 300 mg/kg/day
- LOAEL (rabbit [11]; [34]): 300 mg/kg/day
- NEL (rabbit [11]; [34]): 100 mg/kg/day
- NOAEL (rabbit [11]; [34]): 100 mg/kg/day
- LEL (rabbit [11]; [35]): 300 mg/kg/day
- LOAEL (rabbit [11]; [35]): 300 mg/kg/day
- NEL (rabbit [11]; [35]): 100 mg/kg/day
- NOAEL (rabbit [11]; [35]): 100 mg/kg/day
- LOAEL (mouse [12]; [36]): 375 mg/kg/day
- NEL (mouse [12]; [36]): 6.1 mg/kg/day
- NOAEL (mouse [12]; [36]): 60 mg/kg/day
- LEL (mouse [12]; systemic / hematology / mean corpuscular (cell) volume (mcv) / mean corpuscular (cell) volume (mcv) + systemic / hematology / monocytes / …): 60 mg/kg/day
- LOAEL (rat [13]; [37]): 120 mg/kg/day
- NOAEL (rat [13]; [37]): 20 mg/kg/day
- LEL (rat [13]; systemic / clinical chemistry / glucose / glucose): 23 mg/kg/day
- NEL (rat [13]; systemic / clinical chemistry / glucose / glucose + systemic / clinical chemistry / alanine aminotransferase (alt/sgpt) / alanine …): 3.8 mg/kg/day
- LEL (rat [14]; [38]): 35 mg/kg/day
- LOAEL (rat [14]; [38]): 35 mg/kg/day
- NEL (rat [14]; [39]): 5 mg/kg/day
- NOAEL (rat [14]; [39]): 5 mg/kg/day
- LOAEL (rat [14]; group: parental, systemic / organ weight / liver / relative to body weight): 35 mg/kg/day
- NOAEL (rat [14]; group: parental, systemic / organ weight / liver / relative to body weight + systemic / in life observation / clinical signs / discharge on cageboard + …): 5 mg/kg/day
- LEL (rat [14]; [40]): 5 mg/kg/day
- NEL (rat [14]; [40]): < 5 mg/kg/day
- LEL (rat [15]): 52.3 mg/kg/day
- LOAEL (rat [15]): 52.3 mg/kg/day
- NEL (rat [15]): 10.6 mg/kg/day
- NOAEL (rat [15]): 10.6 mg/kg/day
- LEL (mouse [16]; [41]): 10.4 mg/kg/day
- LOAEL (mouse [16]; [41]): 10.4 mg/kg/day
- NEL (mouse [16]; [42]): 3.1 mg/kg/day
- NOAEL (mouse [16]; [42]): 3.1 mg/kg/day
- LEL (dog [17]): 339 mg/kg/day
- LOAEL (dog [17]): 339 mg/kg/day
- NEL (dog [17]): 32.2 mg/kg/day
- NOAEL (dog [17]): 32.2 mg/kg/day

SMILES: CCCCOC(=O)[C@@H](C)Oc1ccc(Oc2ccc(C(F)(F)F)cn2)cc1 [Fluazifop-P-butyl]
- LEL (rabbit [18]; [43]): 50 mg/kg/day
- LOAEL (rabbit [18]; [43]): 50 mg/kg/day
- NEL (rabbit [18]; [43]): 10 mg/kg/day
- NOAEL (rabbit [18]; [43]): 10 mg/kg/day
- LEL (rabbit [18]; [44]): 50 mg/kg/day
- LOAEL (rabbit [18]; [44]): 50 mg/kg/day
- NEL (rabbit [18]; [44]): 10 mg/kg/day
- NOAEL (rabbit [18]; [44]): 10 mg/kg/day
- LEL (rat [19]; [45]): 20 mg/kg/day
- LOAEL (rat [19]; [45]): 20 mg/kg/day
- NEL (rat [19]; [45]): 1 mg/kg/day
- NOAEL (rat [19]; [45]): 1 mg/kg/day
- LOAEL (rat [19]; group: maternal, systemic / in life observation / body weight / body weight gain): 300 mg/kg/day
- LEL (rat [19]; [46]): 300 mg/kg/day
- NEL (rat [19]; [46]): 20 mg/kg/day
- NOAEL (rat [19]; [46]): 20 mg/kg/day
- LEL (rat [20]; [47]): 0.5 mg/kg/day
- NEL (rat [20]; [47]): < 0.5 mg/kg/day
- LOAEL (rat [20]; systemic / organ weight / spleen / absolute + systemic / organ weight / spleen / relative to body weight + systemic / hematology / …): 5 mg/kg/day
- NOAEL (rat [20]; systemic / organ weight / spleen / absolute + systemic / organ weight / spleen / relative to body weight + systemic / organ weight / brain…): 0.5 mg/kg/day
